# Molecular target: Amyloid-beta precursor protein (Homo sapiens, UniProt P05067)
# Assay: Inhibition of amyloid beta42 fibril formation by thioflavin T formation
# Chain of Amyloid-beta precursor protein (P05067 whole entry): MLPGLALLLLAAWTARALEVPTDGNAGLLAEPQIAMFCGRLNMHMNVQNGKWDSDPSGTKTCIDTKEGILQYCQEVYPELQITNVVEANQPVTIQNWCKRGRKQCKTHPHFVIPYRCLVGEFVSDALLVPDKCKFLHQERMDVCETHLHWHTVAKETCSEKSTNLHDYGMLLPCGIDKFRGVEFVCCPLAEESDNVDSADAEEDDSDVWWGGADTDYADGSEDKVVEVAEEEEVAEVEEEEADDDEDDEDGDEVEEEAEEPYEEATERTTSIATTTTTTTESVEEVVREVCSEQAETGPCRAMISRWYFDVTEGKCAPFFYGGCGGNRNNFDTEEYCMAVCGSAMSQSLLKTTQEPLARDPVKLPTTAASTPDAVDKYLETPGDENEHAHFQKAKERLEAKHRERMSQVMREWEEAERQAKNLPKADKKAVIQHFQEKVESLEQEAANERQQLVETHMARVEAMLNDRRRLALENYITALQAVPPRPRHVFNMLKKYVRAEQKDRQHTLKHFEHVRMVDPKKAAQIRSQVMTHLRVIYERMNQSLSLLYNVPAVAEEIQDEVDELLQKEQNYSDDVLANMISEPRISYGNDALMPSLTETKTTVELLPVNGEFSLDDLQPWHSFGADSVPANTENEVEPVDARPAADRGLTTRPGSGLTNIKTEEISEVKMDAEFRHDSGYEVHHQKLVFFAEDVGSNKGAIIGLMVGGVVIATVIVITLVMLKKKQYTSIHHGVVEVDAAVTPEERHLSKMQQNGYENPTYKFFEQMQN
row,IC50,SMILES
1,130 nM,Cc1ccc2oc(/C=C/c3ccc(N(C)C)cc3)cc2c1
2,810 nM,COc1ccc2oc(/C=C/c3ccc(N(C)C)cc3)cc2c1
3,3620 nM,CN(C)c1ccc(/C=C/c2cc3ccc(O)cc3o2)cc1
4,820 nM,COc1ccc2oc(/C=C/c3ccc(N)cc3)cc2c1
5,70 nM,COc1ccc2cc(/C=C/c3ccc(N(C)C)cc3)oc2c1
6,5440 nM,COc1ccc2cc(/C=C/c3ccc(N)cc3)oc2c1
7,170 nM,CN(C)c1ccc(/C=C/c2cc3cc(I)ccc3o2)cc1
8,470 nM,CN(C)c1ccc(/C=C/c2cc3cc(Br)ccc3o2)cc1
9,530 nM,COc1ccc2cc(/C=C/c3ccc(N(C)C)c(OC)c3)oc2c1
10,3210 nM,CN(C)c1ccc(/C=C/c2cc3ccc(Cl)cc3o2)cc1
11,800 nM,CNc1ccc(/C=C/c2cc3ccc(OC)cc3o2)cc1
12,2160 nM,CNc1ccc(/C=C/c2cc3cc(O)ccc3o2)cc1
13,1980 nM,CN(C)c1ccc(/C=C/c2cc3cc(F)ccc3o2)cc1
14,2950 nM,Nc1ccc(/C=C/c2cc3cc(O)ccc3o2)cc1
15,1340 nM,CN(C)c1ccc(/C=C/c2cc3ccc(Br)cc3o2)cc1
16,160 nM,CN(C)c1ccc(/C=C/c2cc3cc(O)ccc3o2)cc1
17,3440 nM,Cc1ccc2cc(/C=C/c3ccc(N(C)C)cc3)oc2c1
18,2190 nM,CN(C)c1ccc(/C=C/c2cc3ccc(F)cc3o2)cc1
19,2300 nM,CN(C)c1ccc(/C=C/c2cc3ccccc3o2)cc1
20,200 nM,CN(C)c1ccc(/C=C/c2cc3cc(Cl)ccc3o2)cc1
21,2800 nM,CN(C)c1ccc(/C=C/c2cc3ccc(I)cc3o2)cc1
22,160 nM,COc1ccc2oc(/C=C/c3ccc(N(C)C)c(OC)c3)cc2c1
23,80 nM,CNc1ccc(/C=C/c2cc3cc(OC)ccc3o2)cc1
